Measurements taken from US20130275051A1, “COMPUTING DEVICE AND METHOD FOR DETECTING CELL DEATH IN A BIOLOGICAL SAMPLE” (priority 2011, published 2013).

System: human bladder carcinoma (HT-1376) tumors
Assay: OCT decorrelation time in tumors grown in dorsal skin-fold window chamber model
Assay type: in vivo
Details: mice, single tail vein injection 100 mg/m2, 0, 24 and 48 hours, FIG. 11; cell death confirmed by histological data
Excerpt: An in-vivo tumor model used in the successful experiment consisted of human bladder carcinoma (HT-1376) tumors grown within a dorsal skin-fold window chamber model in a plurality of mice. […] A custom built 36 kHz swept source OCT system (similar to system 100) was used for in-vivo acquisition of data. For each imaging time point, two-dimensional frames of OCT data were acquired at 200 frames per second over approximately 8 seconds. Each frame contained 180 axial scans and covered a lateral distance of 3 mm. Data sets were acquired from imaging planes within the window chamber of each mouse. Method 200 was applied to each pixel location of an ROI within tumors at 0 hours, 24 hours and 48 hours to obtain an average decorrelation time at each of 0 hours, 24 hours and 48 hours.

N.N.[Cl][Pt][Cl] [cisplatin]
average decorrelation time within tumor ROI: increase in average decorrelation time
